Laboratory results reported in patent US8008283B2, “Methods and compositions for the treatment of neuropsychiatric disorders” (Neurotherapeutics Pharma, Inc., priority 2005, dated 2011).

How the values were obtained:
[1] = test system: rat hippocampal slices; test: stimulation evoked after discharge activity in rat hippocampal slices (Example 68); type: cell-based
Experimental: Sprague-Dawley rats (males and females; 25-35 days old) were decapitated, the top of the skull was rapidly removed, and the brain chilled with ice-cold oxygenated slicing medium. […] A hemisphere of brain containing hippocampus was blocked and glued (cyanoacrylic adhesive) to the stage of a Vibroslicer (Frederick Haer, Brunsick, Me.). […] In the recording chamber, the slices were perfused with oxygenated recording medium at 34-35° C. All animal procedures were conducted in accordance with NIH and University of Washington animal care guidelines. In most slice experiments, simultaneous extracellular field electrode recordings were obtained from CA1 and CA3 areas. A bipolar tungsten stimulating electrode was placed on the Schaffer collaterals to evoke synaptically-driven field responses in CA1. Stimuli consisted of 100-300 μsec duration pulses at an intensity of four times the population-spike threshold. After discharges were evoked by a 2 second train of such stimuli delivered at 60 Hz.

[2] = test system: rats; details: Granados-Soto et al. Pain 2005; cited from earlier work
[3] = co-treatment with an NMDA receptor antagonist, non-NMDA receptor and Ca2+ channel antagonists together with furosemide; Collins et al. 1998; cited from earlier work
[4] = test system: urethane-anesthetized rats; test: kainic acid-evoked electrical status epilepticus in urethane-anesthetized rats (Example 70); type: in vivo, rat
Experimental: Body temperature was monitored using a rectal temperature probe and maintained at 35-37° C. with a heating pad; heart rate (EKG) was continuously monitored. The jugular vein was cannulated on one side for intravenous drug administration. Rats were placed in a Kopf stereotaxic device (with the top of the skull level), and a bipolar stainless-steel microelectrode insulated to 0.5 mm of the tip was inserted to a depth of 0.5-1.2 mm from the cortical surface to record electroencephalographic (EEG) activity in the fronto-parietal cortex. In some experiments, a 2M NaCl-containing pipette was lowered to a depth of 2.5-3.0 mm to record hippocampal EEG. Data were stored on VHS videotape and analyzed off-line.
Following the surgical preparation and electrode placement, animals were allowed to recover for 30 minutes before the experiments were initiated with an injection of kainic acid (10-12 mg/kg i.v.). […] Experiments were terminated with the intravenous administration of urethane. Animal care was in accordance with NIH guidelines and approved by the University of Washington Animal Care Committee.

[5] = test system: rat hippocampal slices; test: spontaneous epileptiform burst discharges across a spectrum of in vitro models in hippocampal slices (Example 69); type: cell-based; details: for spontaneous burst discharges, CA3 and CA1: high-K+ (10 mM) medium
Experimental: Sprague-Dawley rats (males and females; 25-35 days old) were decapitated, the top of the skull was rapidly removed, and the brain chilled with ice-cold oxygenated slicing medium. […] A hemisphere of brain containing hippocampus was blocked and glued (cyanoacrylic adhesive) to the stage of a Vibroslicer (Frederick Haer, Brunsick, Me.). […] In the recording chamber, the slices were perfused with oxygenated recording medium at 34-35° C. All animal procedures were conducted in accordance with NIH and University of Washington animal care guidelines.
In most slice experiments, simultaneous extracellular field electrode recordings were obtained from CA1 and CA3 areas. A bipolar tungsten stimulating electrode was placed on the Schaffer collaterals to evoke synaptically-driven field responses in CA1. Stimuli consisted of 100-300 μsec duration pulses at an intensity of four times the population-spike threshold. After discharges were evoked by a 2 second train of such stimuli delivered at 60 Hz.

[6] = test system: human skin; details: Willis et al.; cited from earlier work
[7] = test system: synchronized discharges; details: Hochman et al. Science 270:99-102, 1995; cited from earlier work
[8] = test system: hippocampal slices, CA1; test: comparison of low-[Cl-]o and furosemide on blockade of high-[K+]o-induced epileptiform activity, CA1 field (Example 78); type: cell-based, rat
Excerpt: In all of the following experiments, [Cl^−]o was reduced by equimolar replacement of NaCl with Na^+-gluconate. Gluconate was used rather than other anion replacements for several reasons. […]; U.S. Pat. No. 5,902,732). Third, formate, acetate, and proprionate generate weak acids when employed as Cl^− substitutes and lead to a prompt fall in intracellular pH; gluconate remains extracellular and has not been reported to induce intracellular pH shifts. Fourth, for purposes of comparison we wished to use the same anion replacement that had been used in previous studies examining the effects of low-[Cl^−]o on activity-evoked changes of the ECS.
Sprague-Dawley adult rats were prepared as previously described. Briefly, transverse hippocampal slices, 400 μm thick, were cut using a vibrating cutter. Slices typically contained the entire hippocampus and subiculum. […] Normal ACSF contained (in mmol/l): 124 NaCl, 3 KCl, 1.25 NaH2PO4, 1.2 MgSO4, 26 NaHCO3, 2 CaCl2, and 10 dextrose.
Sharp-electrodes filled with 4 M potassium acetate were used for intracellular recordings from CA1 pyramidal cells. […] For stimulation of the Schaffer collateral pathway, a small monopolar electrode was placed on the surface of the slice midway between areas CA1 and CA3. […] AxoScope software (Axon Instruments Inc.) on a PC-computer was used for off-line analyses of data. […]

[9] = 2.5 mM furosemide, after 20 minutes of perfusion

## NS(=O)(=O)c1cc(C(=O)O)c(NCc2ccco2)cc1Cl [furosemide]
[1]; [9]
  CA1 field response to single test pulse: hyper-excitable field response
  stimulation-evoked optical changes: blocked
[1]; 2.5 mM furosemide, after 20 minutes of perfusion, Schaffer collateral stimulation 60 Hz 2 s, CA1
  electrical after discharge activity: blocked
[1]; after 45 minutes of perfusion with normal bathing medium
  recovery after washout: restoration of initial response patterns
[1]; dose-dependency experiments
  minimum concentration required to block both the after discharges and optical changes: 1.25 mM
[2]
  formalin-induced nociception: reduced
[3]
  reduction of alcohol-dependent cerebrocortical damage: 75-85%
[4]; 90 minutes after the furosemide injection
  cortical activity: remained near normal baseline levels
[4]; intravenous furosemide, cumulative dose 40-60 mg/kg
  latency of block of seizure activity: 30 to 45 min
[4]; intravenous furosemide, cumulative dose 40-60 mg/kg, kainic acid 10-12 mg/kg i.v.
  seizure activity (EEG): blocked
[5]; 0-Ca++ experiments, 5 mM furosemide
  latency of block of bursting: 15 to 20 min
[5]; 200-300 μM 4-aminopyridine
  spontaneous burst discharges: blocked
[5]; 3 hours of perfusion with 0-Mg++ medium, one hour after addition of furosemide
  anticonvulsant resistant bursts, entorhinal cortex: blocked
[5]; all experiments
  spontaneous bursting activity in both CA1 and CA3: reversibly blocked
[5]; all other protocols, 2.5 mM furosemide
  latency of block of bursting: 20 to 60 min
[5]; bicuculline at 50-100 μM
  spontaneous burst discharges: blocked
[5]; 2.5 mM furosemide, after 15 minutes of perfusion
  spontaneous burst discharges, CA3 and CA1: increased in magnitude
[5]; 2.5 mM furosemide, after 45 minutes of perfusion
  spontaneous burst discharges, CA3 and CA1: blocked in a reversible manner
[5]; removal of calcium plus extracellular chelation (0-Ca++)
  spontaneous burst discharges: blocked
[5]; removal of magnesium (0-Mg++), 1 hours perfusion
  spontaneous burst discharges: blocked
[6]
  sensory nerve activation, itch and flare responses induced by histamine: inhibit sensory nerve activation to reduce the itch and flare responses
[7]
  synchronized discharges and hyperexcited synaptic responses: reversibly blocked synchronized discharges without reducing hyperexcited synaptic responses
[8]; after the spontaneous bursting had been blocked
  response to electrical stimulation of the Schaffer collaterals: elicited hyperexcited responses
[8]; furosemide 2.5 and 5 mM, [K+]o 12 mM
  temporal sequence of effects on high-[K+]o-induced bursting, CA1 field: an initial brief period of increased amplitude of field activity, and then blockade (reversible) of spontaneous field activity
